The test system of assay [1] is Trichophyton rubrum KD-1130. Description: Antifungal activity evaluation test: minimum inhibitory concentration (MIC), broth dilution by reference to CLSI M38-A2. The assay is classed as cell-based. Particulars: KD1130, read-out: MIC (T. rubrum). The essentials:
(§1)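 MIC read visually as lowest concentration inhibiting growth by at least 80% relative to control after 4 days at 35° C. Trichophyton strains inoculated at 2×10^3 cells/mL final in MOPS-buffered RPMI 1640 (pH 7.0); compounds as 2-fold DMSO series, CLSI M38-A2 basis.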

In assay [2] the test system is Trichophyton mentagrophytes SM-110. Described as above. Particulars: SM110, read-out: MIC (T. menta.). The class given is cell-based. The essentials: as §1

Converted amounts (≈) assume the structure as drawn. Bounds are passed on as bounds.

The MIC is the smallest concentration in the dilution series that meets the test's criterion for growth inhibition.

On to `Cn1ncc(Cl)c1-c1cccnc1Oc1ccc(C(F)(F)F)cc1` [I-222, 3-(4-chloro-1-methyl-1H-pyrazol-5-yl)-2-[4-(trifluoromethyl)phenoxy]pyridine], for which the MIC in assay [1] and in assay [2] was ≤ 0.1 µg/mL in each case.
Consider `COc1ncccc1-c1cccnc1Oc1ccc(C(F)F)c(C)c1` [I-456], for which the MIC in assay [1] and in assay [2] was ≤ 0.1 µg/mL in each case.
Consider `COc1cc(F)c(F)cc1-c1cncnc1Oc1ccc(C(F)(F)F)nc1` [I-328, 5-(4,5-difluoro-2-methoxyphenyl)-4-{[6-(trifluoromethyl)pyridin-3-yl]oxy}pyrimidine], for which the MIC in assay [1] and in assay [2] was ≤ 0.1 µg/mL throughout.
In the case of `COc1ccccc1-c1cc(C)cnc1Oc1ccc(C(F)(F)F)nc1` [I-66, 3-(2-methoxyphenyl)-5-methyl-2-{[6-(trifluoromethyl)pyridin-3-yl]oxy}pyridine], the MIC was 0.2 to 0.78 µg/mL (≈ 0.555 to 2.16 µM) in assay [1] and 1.56 to 6.25 µg/mL (≈ 4.33 to 17.3 µM) in assay [2].
The like results for `COc1ncccc1-c1cccnc1Oc1ccc(C(C)(F)F)nc1` [I-88, 2-{[6-(1,1-difluoroethyl)pyridin-3-yl]oxy}-2′-methoxy-3,3′-bipyridine] were, in that order, ≤ 0.1 µg/mL and ≤ 0.1 µg/mL.
The like results for `COc1ccncc1-c1cccnc1Oc1cnc(C2CC2)c(Cl)c1` [I-132, 2-[(5-chloro-6-cyclopropylpyridin-3-yl)oxy]-4′-methoxy-3,3′-bipyridine] were, in that order, 1.56 to 6.25 µg/mL (≈ 4.41 to 17.7 µM) and 0.2 to 0.78 µg/mL (≈ 0.565 to 2.2 µM).
The matching figures for `COc1ccccc1-c1cncnc1Oc1ccc(C(C)(F)F)nc1` [I-312, 4-{[6-(1,1-difluoroethyl)-pyridin-3-yl]oxy}-5-(2-methoxyphenyl)pyrimidine]: ≤ 0.1 µg/mL and ≤ 0.1 µg/mL.
Regarding `COc1ncc(F)cc1-c1cccnc1Oc1cnc(C(F)(F)F)c(C)c1` [I-119, 5-fluoro-2-methoxy-2′-{[5-methyl-6-(trifluoromethyl)pyridin-3-yl]oxy}-3,3′-bipyridine], the MIC in assay [1] and in assay [2] was ≤ 0.1 µg/mL each time.
`Cc1cnc(-c2ccc(Oc3ncccc3-c3cnccc3C)cc2)s1` [I-428]: the MIC in assay [1] and in assay [2] was ≤ 0.1 µg/mL in each case.
`N#Cc1cnn2c(-c3cccnc3Oc3ccc(C(F)(F)F)nc3)cccc12` [I-54, 7-(2-{[6-(trifluoromethyl)pyridin-3-yl]oxy}pyridin-3-yl)-pyrazolo[1,5-a]pyridine-3-carbonitrile]: the MIC in assay [1] and in assay [2] was 0.2 to 0.78 µg/mL (≈ 0.524 to 2.05 µM) each time.
`C#CCCc1ccc(Oc2ncccc2-c2cccnc2OC)cc1` [I-407, 2-[4-(but-3-yn-1-yl)phenoxy]-2′-methoxy-3,3′-bipyridine]: the minimum inhibitory concentration (MIC) in assay [1] and in assay [2] was ≤ 0.1 µg/mL throughout.
For `COc1cccc(-c2cccnc2Oc2ccc(C(F)(F)F)nc2)n1` [I-374, 6-methoxy-2′-{[6-(trifluoromethyl)pyridin-3-yl]oxy}-2,3′-bipyridine], the minimal inhibitory concentration (MIC) in assay [1] and in assay [2] was ≤ 0.1 µg/mL throughout.
As for `COc1ncccc1-c1nccnc1Oc1ccc2c(c1)CCCC2` [I-316, 2-(2-methoxypyridin-3-yl)-3-[(5,6,7,8-tetrahydronaphthalen-2-yl)oxy]pyrazine], the MIC in assay [1] and in assay [2] was ≤ 0.1 µg/mL in each case.
For the compound `CC(F)(F)c1ccc(Oc2ncncc2-c2cccc3c2OCC3)cn1` [I-335, 4-{[6-(1,1-difluoroethyl)pyridin-3-yl]oxy}-5-(2,3-dihydrobenzofuran-7-yl)pyrimidine], the MIC in assay [1] and in assay [2] was ≤ 0.1 µg/mL in each case.
For `CCN(C)c1ncc(Oc2ncccc2-c2cccc3c2OCC3)cn1` [I-340, 5-{[3-(2,3-dihydrobenzofuran-7-yl)pyridin-2-yl]oxy}-N-ethyl-N-methylpyrimidin-2-amine], the minimum inhibitory concentration (MIC) in assay [1] and in assay [2] was ≤ 0.1 µg/mL throughout.
Regarding `CCCN(C)c1ncc(Oc2ncccc2-c2cccnc2OC)cn1` [I-183], the MIC in assay [1] and in assay [2] was ≤ 0.1 µg/mL in each case.
As to `COc1ccncc1-c1cccnc1Oc1ccc(C)c(C)c1` [I-262, 2-(3,4-dimethylphenoxy)-4′-methoxy-3,3′-bipyridine], the MIC in assay [1] and in assay [2] was 0.2 to 0.78 µg/mL (≈ 0.653 to 2.55 µM) each time.
On to `COc1ncccc1-c1cccnc1Oc1ccc(OC(F)F)cc1` [I-446], for which the MIC in assay [1] and in assay [2] was ≤ 0.1 µg/mL throughout.
As to `COCCOCC(F)(F)c1ccc(Oc2ncccc2-c2ccc(F)cc2OC)cn1` [I-159, 2-({6-[1,1-difluoro-2-(2-methoxyethoxy)ethyl]pyridin-3-yl}oxy)-3-(4-fluoro-2-methoxyphenyl)pyridine], the results for the MIC in assay [1] and in assay [2] were 0.2 to 0.78 µg/mL (≈ 0.46 to 1.8 µM) and ≤ 0.1 µg/mL, respectively.
As for `FC(F)(F)c1ccc(Oc2ncccc2-c2ccccc2OCC2CCC2)cn1` [I-55, 3-[2-(cyclobutylmethoxy)phenyl]-2-{[6-(trifluoromethyl)pyridin-3-yl]oxy}pyridine], the MIC in assay [1] and in assay [2] was 0.2 to 0.78 µg/mL (≈ 0.5 to 1.95 µM) in each case.
With `CCOCCc1ccc(Oc2ncccc2-c2cccnc2OC)cc1` [I-396, 2-[4-(2-ethoxyethyl)phenoxy]2′-methoxy-3,3′-bipyridine], the MIC in assay [1] and in assay [2] was ≤ 0.1 µg/mL in each case.
For the compound `COc1ccccc1-c1cccnc1Oc1cnc(C(F)(F)F)c(C)c1` [I-117, 5-{[3-(2-methoxyphenyl)pyridin-2-yl]oxy}-3-methyl-2-(trifluoromethyl)pyridine], the MIC in assay [1] and in assay [2] was ≤ 0.1 µg/mL in each case.
In the case of `FC(F)(F)c1ccc(Oc2ncccc2-c2cccc3ncnn23)cc1` [I-230, 5-{2-[4-(trifluoromethyl)phenoxy]pyridin-3-yl}[1,2,4]triazolo[1,5-a]pyridine], the MIC in assay [1] and in assay [2] was 0.2 to 0.78 µg/mL (≈ 0.561 to 2.19 µM) throughout.
Consider `COc1ccncc1-c1cccnc1Oc1ccc(C(C)(F)F)c(F)c1` [I-304], for which the MIC in assay [1] and in assay [2] was ≤ 0.1 µg/mL throughout.
Regarding `CCc1ccc(Oc2ncccc2-c2cc3nccn3cc2C)cc1` [I-293, 7-[2-(4-ethylphenoxy)pyridin-3-yl]-6-methylimidazo[1,2-a]pyridine], the MIC in assay [1] and in assay [2] was 1.56 to 6.25 µg/mL (≈ 4.74 to 19 µM) in each case.
On to `COc1c(F)cccc1-c1cccnc1Oc1ccc(C(F)(F)F)nc1` [I-13, 3-(3-fluoro-2-methoxyphenyl)-2-{[6-(trifluoromethyl)pyridin-3-yl]oxy}pyridine], for which the MIC in assay [1] and in assay [2] was ≤ 0.1 µg/mL throughout.
Consider `COc1ccccc1-c1cccnc1Oc1ccc(C(F)(F)Cn2ccnc2)nc1` [I-351, 2-({6-[1,1-difluoro-2-(1H-imidazol-1-yl)ethyl]pyridin-3-yl}oxy)-3-(2-methoxyphenyl)pyridine], for which the MIC in assay [1] and in assay [2] was 0.2 to 0.78 µg/mL (≈ 0.49 to 1.91 µM) in each case.
Consider `COc1ccncc1-c1cncnc1Oc1ccc(Cl)cc1` [I-357, 4-(4-chlorophenoxy)-5-(4-methoxypyridin-3-yl)pyrimidine], for which the minimum inhibitory concentration (MIC) in assay [1] was 1.56 to 6.25 µg/mL (≈ 4.97 to 19.9 µM); in assay [2], 0.2 to 0.78 µg/mL (≈ 0.637 to 2.49 µM).
In the case of `Cc1cc(Oc2ncccc2-c2cccc3ccnn23)cnc1C(F)(F)F` [I-461], the minimal inhibitory concentration (MIC) in assay [1] and in assay [2] was ≤ 0.1 µg/mL each time.
With `COc1ccncc1-c1cccnc1Oc1ccc(C(C)(F)F)nc1` [I-90, 2-{[6-(1,1-difluoroethyl)pyridin-3-yl]oxy}-4′-methoxy-3,3′-bipyridine], the MIC in assay [1] and in assay [2] was 0.2 to 0.78 µg/mL (≈ 0.583 to 2.27 µM) throughout.
For the compound `COc1cccc(-c2cccnc2Oc2ccc(Cl)cc2)c1` [I-200, 2-(4-chlorophenoxy)-3-(3-methoxyphenyl)pyridine], the MIC in assay [1] and in assay [2] was ≤ 0.1 µg/mL each time.
As for `CCc1ccc(Oc2ncccc2-c2cncc(C(F)F)c2OC)cc1` [I-288, 5′-(difluoromethyl)-2-(4-ethylphenoxy)-4′-methoxy-3,3′-bipyridine], the MIC in assay [1] and in assay [2] was ≤ 0.1 µg/mL throughout.
As to `C#Cc1ccccc1-c1cccnc1Oc1ccc(C(F)(F)F)nc1` [I-64, 3-(2-ethynylphenyl)-2-{[6-(trifluoromethyl)pyridin-3-yl]oxy}pyridine], the minimal inhibitory concentration (MIC) in assay [1] and in assay [2] was ≤ 0.1 µg/mL in each case.
On to `COc1cc(F)ccc1-c1cncnc1Oc1ccc(C(C)(F)F)nc1` [I-359, 4-{[6-(1,1-difluoroethyl)pyridin-3-yl]oxy}-5-(4-fluoro-2-methoxyphenyl)pyrimidine], for which the MIC in assay [1] and in assay [2] was ≤ 0.1 µg/mL throughout.
In the case of `COc1ccncc1-c1cccnc1Oc1ccc(C(OS(=O)(=O)c2ccc(C)cc2)C(F)(F)F)cc1` (stereo not shown) [I-248], the MIC in assay [1] and in assay [2] was 1.56 to 6.25 µg/mL (≈ 2.94 to 11.8 µM) each time.
Turning to `COc1ccccc1-c1cccnc1Oc1ccc(C(F)(F)F)cc1` [I-201, 3-(2-methoxyphenyl)-2-[4-(trifluoromethyl)phenoxy]pyridine], the MIC in assay [1] and in assay [2] was ≤ 0.1 µg/mL throughout.
`FC(F)(F)c1ccc(Oc2ncccc2-c2cccc3nccnc23)cn1` [I-37, 5-(2-{[6-(trifluoromethyl)pyridin-3-yl]oxy}pyridin-3-yl)quinoxaline]: the MIC in assay [1] and in assay [2] was 0.2 to 0.78 µg/mL (≈ 0.543 to 2.12 µM) throughout.
Regarding `COc1ccccc1-c1cccnc1Oc1cnc2c(c1)CCCC2OC(C)=O` (stereo not shown) [I-139, 3-{[3-(2-methoxyphenyl)pyridin-2-yl]oxy}-5,6,7,8-tetrahydroquinolin-8-yl acetate], the minimum inhibitory concentration (MIC) in assay [1] and in assay [2] was 1.56 to 6.25 µg/mL in each case.
As to `COc1ccc(Oc2ncccc2-c2cnccc2OC)cc1` [I-242, 4′-methoxy-2-(4-methoxyphenoxy)-3,3′-bipyridine], the figures for the minimum inhibitory concentration (MIC) in assay [1] and in assay [2] were 1.56 to 6.25 µg/mL (≈ 5.06 to 20.3 µM) and 0.2 to 0.78 µg/mL (≈ 0.649 to 2.53 µM), respectively.
Take `CCC(=O)OCCc1ccc(Oc2ncccc2-c2cnccc2OC)cc1` [I-278, 4-{[4′-methoxy-3,3′-bipyridin)-2-yl]oxy}phenethyl propionate]: the MIC in assay [1] and in assay [2] was 0.2 to 0.78 µg/mL (≈ 0.529 to 2.06 µM) in each case.
As for `COc1ncccc1-c1cncnc1Oc1ccc(C(F)(F)F)cc1` [I-330, 5-(2-methoxypyridin-3-yl)-4-[4-(trifluoromethyl)phenoxy]pyrimidine], the MIC in assay [1] and in assay [2] was ≤ 0.1 µg/mL in each case.

Values taken from US10647675B2 (priority 2015, dated 2020).
